# ChEMBL document CHEMBL1149262, “Monoamine transporter binding, locomotor activity, and drug discrimination properties of 3-(4-substituted-phenyl)tropane-2-carboxylic acid methyl ester isomers” (J Med Chem, 2004)
# The source made the active and inactive calls. No cut-off for these calls is given here.
# Assays:
# Rattus norvegicus [1] = test: Cocaine discrimination in ip dosed CD Albino rat; assay type: functional
# Rattus norvegicus [2] = test: Drug discrimination effect in CD Albino rat assessed as percent of rat choosing cocaine lever at 1 mg/kg, ip; assay type: functional; conditions: route intraperitoneal
# Rattus norvegicus [3] = test: Drug discrimination effect in CD Albino rat assessed as percent of rat choosing cocaine lever at 3 mg/kg, ip; assay type: functional; conditions: route intraperitoneal
# Rattus norvegicus [4] = test: Drug discrimination effect in CD Albino rat assessed as percent of rat choosing cocaine lever at 5.6 mg/kg, ip; assay type: functional; conditions: route intraperitoneal
# Rattus norvegicus [5] = test: Drug discrimination effect in CD Albino rat assessed as percent of rat choosing cocaine lever at 10 mg/kg, ip; assay type: functional; conditions: route intraperitoneal
# Mus musculus [6] = test: Activity in CD1 mouse assessed as stereotypy at 10 mg/kg, ip after 4 hrs; assay type: functional, organism-based; set-up: dose 10 mg/kg
# Mus musculus [7] = test: Activity in CD1 mouse assessed as circling at 10 mg/kg, ip after 4 hrs; assay type: functional, organism-based; set-up: dose 10 mg/kg
# Mus musculus [8] = test: Activity in CD1 mouse assessed as slight or intermittent hyperactivity at 10 mg/kg, ip after 4 hrs; assay type: functional, organism-based; set-up: dose 10 mg/kg
# Mus musculus [9] = test: Activity in CD1 mouse assessed as hyperactivity at 100 mg/kg, ip after 4 hrs; assay type: functional, organism-based; set-up: dose 100 mg/kg
# Mus musculus [10] = test: Activity in CD1 mouse assessed as stereotypy at 100 mg/kg, ip after 4 hrs; assay type: functional, organism-based; set-up: dose 100 mg/kg
# Mus musculus [11] = test: Activity in CD1 mouse assessed as circling at 100 mg/kg, ip after 4 hrs; assay type: functional, organism-based; set-up: dose 100 mg/kg
# [12] = target: Sodium-dependent noradrenaline transporter (Homo sapiens, UniProt P23975); test: Displacement of [3H]nisoxetine from NET
# Mus musculus [13] = test: Locomotor activity in ip dosed CD1 mouse in peak hour; assay type: functional
# Mus musculus [14] = test: Locomotor activity in CD1 mouse assessed as stimulation at 3 mg/kg, ip after 1 hr relative to control; assay type: functional; conditions: route intraperitoneal
# Mus musculus [15] = test: Locomotor activity in CD1 mouse assessed as stimulation at 3 mg/kg, ip after 2 hrs relative to control; assay type: functional; conditions: route intraperitoneal
# Mus musculus [16] = test: Locomotor activity in CD1 mouse assessed as stimulation at 3 mg/kg, ip after 3 hrs relative to control; assay type: functional; conditions: route intraperitoneal
# Mus musculus [17] = test: Locomotor activity in CD1 mouse assessed as stimulation at 3 mg/kg, ip after 4 hrs relative to control; assay type: functional; conditions: route intraperitoneal
# Mus musculus [18] = test: Locomotor activity in CD1 mouse assessed as stimulation at 10 mg/kg, ip after 1 hr relative to control; assay type: functional; conditions: route intraperitoneal
# Mus musculus [19] = test: Locomotor activity in CD1 mouse assessed as stimulation at 10 mg/kg, ip after 2 hrs relative to control; assay type: functional; conditions: route intraperitoneal
# Mus musculus [20] = test: Locomotor activity in CD1 mouse assessed as stimulation at 10 mg/kg, ip after 3 hrs relative to control; assay type: functional; conditions: route intraperitoneal
# Mus musculus [21] = test: Locomotor activity in CD1 mouse assessed as stimulation at 10 mg/kg, ip after 4 hrs relative to control; assay type: functional; conditions: route intraperitoneal
# Mus musculus [22] = test: Locomotor activity in CD1 mouse assessed as stimulation at 30 mg/kg, ip after 1 hr relative to control; assay type: functional; conditions: route intraperitoneal
# Mus musculus [23] = test: Locomotor activity in CD1 mouse assessed as stimulation at 30 mg/kg, ip after 2 hrs relative to control; assay type: functional; conditions: route intraperitoneal
# Mus musculus [24] = test: Locomotor activity in CD1 mouse assessed as stimulation at 30 mg/kg, ip after 3 hrs relative to control; assay type: functional; conditions: route intraperitoneal
# Mus musculus [25] = test: Locomotor activity in CD1 mouse assessed as stimulation at 30 mg/kg, ip after 4 hrs relative to control; assay type: functional; conditions: route intraperitoneal
# Mus musculus [26] = test: Locomotor activity in CD1 mouse assessed as stimulation at 100 mg/kg, ip after 1 hr relative to control; assay type: functional; conditions: route intraperitoneal
# Mus musculus [27] = test: Locomotor activity in CD1 mouse assessed as stimulation at 100 mg/kg, ip after 2 hrs relative to control; assay type: functional; conditions: route intraperitoneal
# Mus musculus [28] = test: Locomotor activity in CD1 mouse assessed as stimulation at 100 mg/kg, ip after 3 hrs relative to control; assay type: functional; conditions: route intraperitoneal
# Mus musculus [29] = test: Locomotor activity in CD1 mouse assessed as stimulation at 100 mg/kg, ip after 4 hrs relative to control; assay type: functional; conditions: route intraperitoneal
# [30] = target: Sodium-dependent serotonin transporter (Homo sapiens, UniProt P31645)
# Description: Displacement of [3H]paroxetine from 5HTT
# Mus musculus [31] = test: Locomotor activity in CD1 mouse assessed as stimulation at 0.3 mg/kg, ip after 1 hr relative to control; assay type: functional; conditions: route intraperitoneal
# Mus musculus [32] = test: Locomotor activity in CD1 mouse assessed as stimulation at 0.3 mg/kg, ip after 2 hrs relative to control; assay type: functional; conditions: route intraperitoneal
# Mus musculus [33] = test: Locomotor activity in CD1 mouse assessed as stimulation at 0.3 mg/kg, ip after 3 hrs relative to control; assay type: functional; conditions: route intraperitoneal
# Mus musculus [34] = test: Locomotor activity in CD1 mouse assessed as stimulation at 0.3 mg/kg, ip after 4 hrs relative to control; assay type: functional; conditions: route intraperitoneal
# Mus musculus [35] = test: Locomotor activity in CD1 mouse assessed as stimulation at 1 mg/kg, ip after 1 hr relative to control; assay type: functional; conditions: route intraperitoneal
# Mus musculus [36] = test: Locomotor activity in CD1 mouse assessed as stimulation at 1 mg/kg, ip after 2 hrs relative to control; assay type: functional; conditions: route intraperitoneal
# Mus musculus [37] = test: Locomotor activity in CD1 mouse assessed as stimulation at 1 mg/kg, ip after 3 hrs relative to control; assay type: functional; conditions: route intraperitoneal
# Mus musculus [38] = test: Locomotor activity in CD1 mouse assessed as stimulation at 1 mg/kg, ip after 4 hrs relative to control; assay type: functional; conditions: route intraperitoneal
# Mus musculus [39] = test: Locomotor activity in CD1 mouse assessed as stimulation at 0.1 mg/kg, ip after 1 hr relative to control; assay type: functional; conditions: route intraperitoneal
# Mus musculus [40] = test: Locomotor activity in CD1 mouse assessed as stimulation at 0.1 mg/kg, ip after 2 hrs relative to control; assay type: functional; conditions: route intraperitoneal
# Mus musculus [41] = test: Locomotor activity in CD1 mouse assessed as stimulation at 0.1 mg/kg, ip after 3 hrs relative to control; assay type: functional; conditions: route intraperitoneal
# Mus musculus [42] = test: Locomotor activity in CD1 mouse assessed as stimulation at 0.1 mg/kg, ip after 4 hrs relative to control; assay type: functional; conditions: route intraperitoneal
# Rattus norvegicus [43] = test: Drug discrimination effect in CD Albino rat assessed as percent of rat choosing cocaine lever at 0.17 mg/kg, ip; assay type: functional; conditions: route intraperitoneal
# Rattus norvegicus [44] = test: Drug discrimination effect in CD Albino rat assessed as percent of rat choosing cocaine lever at 0.3 mg/kg, ip; assay type: functional; conditions: route intraperitoneal
# Mus musculus [45] = test: Activity in CD1 mouse assessed as hyperactivity at 1 mg/kg, ip after 4 hrs; assay type: functional, organism-based; set-up: dose 1 mg/kg
# Mus musculus [46] = test: Activity in CD1 mouse assessed as stereotypy at 1 mg/kg, ip after 4 hrs; assay type: functional, organism-based; set-up: dose 1 mg/kg
# Mus musculus [47] = test: Activity in CD1 mouse assessed as circling at 1 mg/kg, ip after 4 hrs; assay type: functional, organism-based; set-up: dose 1 mg/kg
# Mus musculus [48] = test: Activity in CD1 mouse assessed as straub tail at 100 mg/kg, ip after 4 hrs; assay type: functional, organism-based; set-up: dose 100 mg/kg
# Mus musculus [49] = test: Activity in CD1 mouse assessed as hind limb splay at 100 mg/kg, ip after 4 hrs; assay type: functional, organism-based; set-up: dose 100 mg/kg; conditions: Hindlimb
# [50] = target: Sodium-dependent dopamine transporter (Homo sapiens, UniProt Q01959); test: Displacement of [3H]WIN-35428 from DAT
# Rattus norvegicus [51] = test: Drug discrimination effect in CD Albino rat assessed as percent of rat choosing cocaine lever at 0.1 mg/kg, ip; assay type: functional; conditions: route intraperitoneal
# Rattus norvegicus [52] = test: Drug discrimination effect in CD Albino rat assessed as percent of rat choosing cocaine lever at 0.56 mg/kg, ip; assay type: functional; conditions: route intraperitoneal
# Sequence of Sodium-dependent noradrenaline transporter (P23975 whole entry): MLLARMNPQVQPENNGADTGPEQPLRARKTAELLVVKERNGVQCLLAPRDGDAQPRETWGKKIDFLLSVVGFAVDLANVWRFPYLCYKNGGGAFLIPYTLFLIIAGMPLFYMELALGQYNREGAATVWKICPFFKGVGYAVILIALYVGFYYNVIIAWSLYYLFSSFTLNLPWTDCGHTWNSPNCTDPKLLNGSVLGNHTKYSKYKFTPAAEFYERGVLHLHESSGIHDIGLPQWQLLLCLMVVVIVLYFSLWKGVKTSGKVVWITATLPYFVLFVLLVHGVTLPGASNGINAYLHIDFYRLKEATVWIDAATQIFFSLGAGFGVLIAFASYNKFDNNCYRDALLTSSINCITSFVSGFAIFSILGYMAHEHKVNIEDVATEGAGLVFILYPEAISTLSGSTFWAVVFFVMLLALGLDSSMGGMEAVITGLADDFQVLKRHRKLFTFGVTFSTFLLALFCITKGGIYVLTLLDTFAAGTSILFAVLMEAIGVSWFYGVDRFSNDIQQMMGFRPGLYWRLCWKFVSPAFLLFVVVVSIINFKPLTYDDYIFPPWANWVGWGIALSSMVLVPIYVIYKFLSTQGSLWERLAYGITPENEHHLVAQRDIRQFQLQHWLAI
# Sequence of Sodium-dependent dopamine transporter (Q01959 whole entry): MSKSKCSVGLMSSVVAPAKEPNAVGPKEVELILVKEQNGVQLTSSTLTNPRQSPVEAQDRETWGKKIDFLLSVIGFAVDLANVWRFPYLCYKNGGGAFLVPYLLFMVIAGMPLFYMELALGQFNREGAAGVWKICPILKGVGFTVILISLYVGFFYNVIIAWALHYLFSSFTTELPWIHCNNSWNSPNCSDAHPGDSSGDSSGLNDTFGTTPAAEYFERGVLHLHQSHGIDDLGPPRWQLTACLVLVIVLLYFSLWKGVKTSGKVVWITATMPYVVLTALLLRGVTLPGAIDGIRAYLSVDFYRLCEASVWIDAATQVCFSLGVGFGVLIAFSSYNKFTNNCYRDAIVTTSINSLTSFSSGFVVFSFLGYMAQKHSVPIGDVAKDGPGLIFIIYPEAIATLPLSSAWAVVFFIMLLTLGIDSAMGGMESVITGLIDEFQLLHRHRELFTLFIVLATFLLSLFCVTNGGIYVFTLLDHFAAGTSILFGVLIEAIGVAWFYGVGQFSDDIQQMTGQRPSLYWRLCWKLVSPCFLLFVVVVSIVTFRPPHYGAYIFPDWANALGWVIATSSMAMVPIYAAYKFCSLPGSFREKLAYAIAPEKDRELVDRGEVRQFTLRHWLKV
# Sequence of Sodium-dependent serotonin transporter (P31645 whole entry): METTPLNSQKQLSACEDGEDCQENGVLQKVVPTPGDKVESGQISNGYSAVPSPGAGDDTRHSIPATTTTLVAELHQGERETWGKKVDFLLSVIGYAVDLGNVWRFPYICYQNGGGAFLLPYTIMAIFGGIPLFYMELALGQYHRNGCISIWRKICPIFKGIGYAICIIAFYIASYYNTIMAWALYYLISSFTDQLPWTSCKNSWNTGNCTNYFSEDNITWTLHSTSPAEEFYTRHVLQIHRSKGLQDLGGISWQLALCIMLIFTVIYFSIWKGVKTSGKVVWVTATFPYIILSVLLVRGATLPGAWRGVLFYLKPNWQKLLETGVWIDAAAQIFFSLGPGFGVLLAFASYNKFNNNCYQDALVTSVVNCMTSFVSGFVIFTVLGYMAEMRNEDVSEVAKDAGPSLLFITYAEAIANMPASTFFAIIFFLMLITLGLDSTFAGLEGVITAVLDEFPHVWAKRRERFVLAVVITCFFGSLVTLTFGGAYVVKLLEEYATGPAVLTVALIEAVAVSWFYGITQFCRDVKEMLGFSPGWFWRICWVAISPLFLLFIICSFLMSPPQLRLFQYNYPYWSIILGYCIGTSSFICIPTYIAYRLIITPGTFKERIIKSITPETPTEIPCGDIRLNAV
Structure (SMILES),ED50 (Rattus norvegicus [1]) [mg/kg],Activity (Rattus norvegicus [2]) [%],Activity (Mus musculus [6]),Activity (Mus musculus [10]),IC50 [12] [µM],Ki [12] [µM],ED50 (Mus musculus [13]) [mg/kg],Activity (Mus musculus [14]) [%],Activity (Mus musculus [15]) [%],Activity (Mus musculus [16]) [%],Activity (Mus musculus [17]) [%],Activity (Mus musculus [18]) [%],Activity (Mus musculus [19]) [%],Activity (Mus musculus [20]) [%],Activity (Mus musculus [21]) [%],Activity (Mus musculus [31]) [%],Activity (Mus musculus [32]) [%],Activity (Mus musculus [33]) [%],Activity (Mus musculus [34]) [%],Activity (Mus musculus [35]) [%],further results
COC(=O)[C@@H]1C2CCC(C[C@H]1c1ccc(F)cc1)N2C (some centres undefined),5.66,0,Active,Active,1.2,0.741,15.6,26,-23,16,41,137,105,146,58,,,,,,Activity (Rattus norvegicus [3]): 29%; Activity (Rattus norvegicus [4]): 38%; Activity (Rattus norvegicus [5]): 86%; Activity (Mus musculus [7]): Active; Activity (Mus musculus [8]): Active; Activity (Mus musculus [9]): Active; Activity (Mus musculus [11]): Active; Activity (Mus musculus [22]): 362%; Activity (Mus musculus [23]): 187%; Activity (Mus musculus [24]): 215%; Activity (Mus musculus [25]): 66%; Activity (Mus musculus [26]): 575%; Activity (Mus musculus [27]): 340%; Activity (Mus musculus [28]): 194%; Activity (Mus musculus [29]): 73%; IC50 [30]: 5.06 µM; Ki [30]: 0.46 µM
COC(=O)C1C2CC[C@H](C[C@@H]1c1ccc(Cl)cc1)N2C (some centres undefined),0.13,,Active,Active,,,0.2,416,-36,589,1643,,,,,462,1426,1201,235,645,Activity (Mus musculus [36]): 958%; Activity (Mus musculus [37]): 1892%; Activity (Mus musculus [38]): 1507%; Activity (Mus musculus [39]): -26%; Activity (Mus musculus [40]): 53%; Activity (Mus musculus [41]): 91%; Activity (Mus musculus [42]): 17%; Activity (Rattus norvegicus [43]): 44%; Activity (Rattus norvegicus [44]): 100%; Activity (Mus musculus [45]): Active; Activity (Mus musculus [46]): Active; Activity (Mus musculus [47]): Active; Activity (Mus musculus [48]): Active; Activity (Mus musculus [49]): Active; IC50 [50]: 0.0011 µM; Activity (Rattus norvegicus [51]): 50%
COC(=O)[C@@H]1C2CC[C@H](C[C@@H]1c1ccc(C)cc1)N2C,0.31,86,Active,Active,0.06,0.036,0.6,533,460,157,30,283,476,343,273,19,-3,-61,-28,305,Activity (Mus musculus [36]): 298%; Activity (Mus musculus [37]): 41%; Activity (Mus musculus [38]): -4%; Activity (Rattus norvegicus [43]): 25%; Activity (Rattus norvegicus [44]): 57%; Activity (Rattus norvegicus [52]): 71%; IC50 [50]: 0.0017 µM; Activity (Rattus norvegicus [51]): 0%
